Measured values reported in US20260258473A1, “FLUORESCENT PROBE FOR DETECTION OF ENPP ACTIVITY” (THE UNIVERSITY OF TOKYO, priority 2019, published 2026).

Target: ENPP2 (Homo sapiens, UniProt Q13822)
Assay: Measurement of plasma sample using a plate reader (ENPP probe fluorescence with and without serum)
Type: biochemical
Conditions: compound at 10 μmol/L, ENPP2 at 25 μg/mL, human serum diluted by 10 times vs no serum, multi-well plate, Tris-HCl pH 8.3
Description: First, compounds (4) was diluted to 10 μmol/L with an assay buffer. The assay buffer has the composition of Tris-HCl buffer solution (pH 8.3), magnesium chloride at 1.0 mmol/L and 0.5% CHAPS. Subsequently, ENPP2 at 25 μg/mL and human serum diluted by 10 times were added, and the mixture was dispensed into a multi-well plate. Subsequently, the fluorescence intensity was measured with a plate reader. […] On the other hand, as described above, the measurement method using a microdevice enabled the activity of ENPP to be adequately measured even in the presence of serum.

With `COc1cc(OC)c(S(=O)(=O)O)cc1-c1c2ccc(=O)cc-2oc2cc(OCOP(=O)(O)OCC3OC(n4cc(C)c(=O)[nH]c4=O)CC3O)ccc12` (stereo not shown) [Compound (4)] the “measured intensity of the activity of ENPP (fluorescence intensity)” value was “lower when serum was present than when serum was not present”.
